Target: T1, TGase2 (Homo sapiens, UniProt P21980)
T1 sequence (P21980 1-687): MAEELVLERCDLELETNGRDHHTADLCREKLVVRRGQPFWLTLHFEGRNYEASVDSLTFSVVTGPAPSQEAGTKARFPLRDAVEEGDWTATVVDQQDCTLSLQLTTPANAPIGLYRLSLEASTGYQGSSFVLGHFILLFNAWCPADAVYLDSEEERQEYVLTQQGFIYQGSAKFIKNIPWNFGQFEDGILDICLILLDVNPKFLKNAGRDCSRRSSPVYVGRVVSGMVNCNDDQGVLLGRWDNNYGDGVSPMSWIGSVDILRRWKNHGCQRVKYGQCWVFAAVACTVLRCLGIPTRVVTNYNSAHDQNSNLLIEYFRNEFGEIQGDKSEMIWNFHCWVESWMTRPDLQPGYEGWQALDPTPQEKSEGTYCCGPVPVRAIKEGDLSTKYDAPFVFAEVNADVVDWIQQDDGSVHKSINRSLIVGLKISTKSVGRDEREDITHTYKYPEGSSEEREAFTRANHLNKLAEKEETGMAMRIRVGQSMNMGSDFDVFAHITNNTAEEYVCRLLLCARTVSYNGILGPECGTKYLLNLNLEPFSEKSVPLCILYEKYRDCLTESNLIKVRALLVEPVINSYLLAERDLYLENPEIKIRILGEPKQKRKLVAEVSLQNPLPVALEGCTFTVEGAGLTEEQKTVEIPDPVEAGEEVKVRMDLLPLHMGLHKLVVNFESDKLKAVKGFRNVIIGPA
Assay: In-situ TGase activity by confocal microscopy in VEGF-treated HRECs
Format: cell-based
Design: endogenous in cells; host or cells: human retinal endothelial cells (HRECs)
Details: 10 ng/ml VEGF 2 hrs, 50 μM cystamine, 20 μM MDC, 5 μM BAPTA-AM, 1 mM NAC, 0.5 μM Trolox, p<0.001
Method: HUVEC isolation was done by our own supply and Human retinal endothelial cells (HRECs) were purchased from the Applied Cell Biology Research Institute (Cell Systems, Kirkland, Wash.). Both respectively were grown on 2% gelatin-coated plates in a M199 medium supplemented with 20% fetal bovine serum (FBS), 3 ng/ml basic fibroblastic growth factor, 5 units/ml heparin, 100 units/ml penicillin, and 100 μg/ml streptomycin. For experiments, cells were incubated for 6 hrs in a low-serum medium supplemented with 1% FBS and antibiotics.
In-situ Tgase transamidating activity was determined via confocal microscopic assay according to a previously known procedure. In brief, cells were incubated with 1 mM 5-(biotinamido)pentylamine (BAPA) for 1 hr at 37° C., fixed with 3.7% formaldehyde in PBS for 30 min, and permeabilized with 0.2% Triton X-100 in PBS for 30 min. After incubation with a blocking solution of 2% BSA in 20 mM Tris (pH 7.6), 138 mM NaCl, and 0.1% Tween 20 for 30 min, cells were treated with Cy3-conjugated streptavidin (1:200, v/v) in the blocking solution for 1 hr. Single-cell fluorescence intensities of stained cells were determined using confocal microscopy for 10 randomly selected cells per test. TGase activities were determined by comparing average fluorescence intensities of treated cells with those of control cells (expressed as multiples thereof).
HRECs were transfected with human TGase2-specific siRNA as described previously. In brief, cells were transfected with various concentrations of human TGase2-siRNA or 100 nM control siRNA (Dharmacon, Lafayette, Colo.) using siLentFect lipid reagent (Bio-Rad Laboratories, Hercules, Calif.) according to the manufacturer's instructions. Six hours after transfection with the indicated concentrations, the medium was replaced with a fresh culture medium and the transfected cells were further incubated for 24 hrs.
A detailed description of FIGS. 1A-1F are given below. […] (A, B) HRECs were incubated with 10 ng/ml VEGF for the indicated times (A) or for 2 hrs (B) in the presence of TGase inhibitors (50 μM cystamine and 20 μM MDC), 5 μM Ca^2+ chelator BAPTA-AM, or ROS scavengers (1 mM NAC or 0.5 μM Trolox). In-situ TGase activity was determined by confocal microscopy as described in Research Design and Methods (A: Time course changes in VEGF-induced transglutaminase activation; and B: Effects of various inhibitors on VEGF-induced transglutaminase activation). (C,D) HRECs were transfected with the indicated concentrations (C) or 100 nM (D) of human TGase2-specific siRNA (TGase2 siRNA) or 100 nM control (Ctrl) siRNA. Endothelial cells were treated with 10 ng/ml VEGF and subjected to confocal microscopic determination of in-situ TGase activity (C: Dose-dependent inhibition of TGase2 expression by TGase2 siRNA, TGase2 expression being analyzed by Western blot; and D: TGase2 siRNA prevention of VEGF-induced transglutaminase activation). FIGS. 1E and 1F show the effects of various inhibitors on the elevation of intracellular Ca^2+ (E) and ROS (F). Intracellular Ca^2+ and ROS levels were determined by confocal microscopy as described in Research Design and Methods. Results are expressed as mean±SD from three independent trials (***p<0.001).

VEGF-induced TGase activation (in-situ TGase activity) | Structure (SMILES)
prevented | NCCSSCCN [cystamine]
prevented | CN(C)c1cccc2c(S(=O)(=O)NCCCCCN)cccc12 [MDC, monodansylcadaverine]
inhibited | Cc1c(C)c2c(c(C)c1O)CCC(C)(C(=O)O)O2 (stereo not drawn) [Trolox]
